The text below walks through data of EP1921115B1, “Use of 3-hydroxy-cyclohex-2-enone azo based dyes in optical layers” (Clariant Finance (BVI) Limited, priority 2006, dated 2008).

Type in all cases: physicochemical
Data set [1] is described as follows: Solubility in 2,2,3,3 tetrafluoropropanol. The note with it: in 2,2,3,3 tetrafluoropropanol at 25 °C. The text has this: The solubilities were differentiated into three groups: A Good solubility (> 20 g / L) B Medium solubility (>= 10 and <= 20 g / L) C Poor solubility (<10 g / L)
The nature of data set [2]: UV-vis spectra (λ max and ε). The note with it: dissolved in CH2Cl2, DMSO or in tfp. On the procedure: For UV-vis spectra, λ max and ε values of a compound are determined by using an UV-vis spectrophotometer, the compound was dissolved in CH2Cl2, DMSO or in tfp. The values are obtained by balancing the measurements performed on compound solutions at three different concentrations.

Data set [3] can be described thus: Thermal decomposition: decomposition point (DP). The settings on record: sealed aluminum pan, 25 to 400°C, heating rate 10°C/min, nitrogen flow, single measurement. On the procedure:
For the determination of DP and HR, the compound is incorporated into a sealed aluminum pan. Analysis conditions are as following: Temperature range from 25 to 400°C, heating rate 10°C/min, nitrogen flow of 50 ml/min. Values are determined by single measurement.

Turning to `CCOC(=O)C1C(O)=C(N=Nc2ccc(C)cc2[N+](=O)[O-])C(=O)CC1(C)C` (centres unmarked) [compound of formula (1)], the Solubility entry in data set [1] was “A (Good solubility (> 20 g / L))”. In data set [2] (Table A, azo ligands), the “ε (at λ max)” value was 63 L/g/cm. The compound further registered a λ max in data set [2] of 427 nm. In addition, the DP in data set [3] stood at 282 °C.
Take `CCOC(=O)C1C(O)=C(N=Nc2cc([N+](=O)[O-])ccc2O)C(=O)CC1(C)C` (centres unmarked) [compound of formula (2)]: the Solubility result in data set [1] is on record as “A (Good solubility (> 20 g / L))”. For the same compound, the “ε (at λ max)” value in data set [2] (Table A, azo ligands) amounted to 52 L/g/cm. This compound had a λ max in data set [2] of 411 nm. Besides, the DP in data set [3] was 253 °C.
The corresponding values for `CCOC(=O)C1C(O)=C(N=Nc2ccc(Cl)cc2[N+](=O)[O-])C(=O)CC1(C)C` (centres unmarked) [compound of formula (3)] are “A (Good solubility (> 20 g / L))”, 52 L/g/cm, 421 nm and 274 °C.
In the case of `CCOC(=O)C1C(O)=C(N=Nc2ccccc2[N+](=O)[O-])C(=O)CC1(C)C` (centres unmarked) [compound of formula (4)], the Solubility result in data set [1] was “B (Medium solubility (>= 10 and <= 20 g / L))”. The “ε (at λ max)” value in data set [2] (Table A, azo ligands) came out at 52 L/g/cm. For the same compound, the λ max in data set [2] was 424 nm. The same compound displayed a DP in data set [3] of 238 °C.
Consider `CCOC(=O)C1C(O)=C(N=Nc2ccc(S(C)(=O)=O)cc2[N+](=O)[O-])C(=O)CC1(C)C` (centres unmarked) [compound of formula (5)], for which, in data set [1], the Solubility entry was “A (Good solubility (> 20 g / L))”. Besides, the “ε (at λ max)” value in data set [2] (Table A, azo ligands) stood at 19 L/g/cm. This compound came in with a λ max in data set [2] of 384 nm. This compound registered a DP in data set [3] of 200 °C.
For the compound `CCOC(=O)C1C(O)=C(N=Nc2ccc(OC)cc2[N+](=O)[O-])C(=O)CC1(C)C` (centres unmarked) [compound of formula (6)], the Solubility result in data set [1] was “B (Medium solubility (>= 10 and <= 20 g / L))”. In addition, the “ε (at λ max)” value in data set [2] (Table A, azo ligands) was 56 L/g/cm. Also, the λ max in data set [2] came out at 448 nm. Moreover, in data set [3], the DP is 273 °C.
As to `CCOC(=O)C1C(O)=C(N=Nc2ccc(C(F)(F)F)cc2[N+](=O)[O-])C(=O)CC1(C)C` (centres unmarked) [compound of formula (7)], in data set [1], the Solubility result is “A (Good solubility (> 20 g / L))”. Also, in data set [2] (Table A, azo ligands), the “ε (at λ max)” value stood at 32 L/g/cm. Also, the λ max in data set [2] was 399 nm. In data set [3], this compound came in with a DP of 276 °C.
As for `CCOC(=O)C1C(O)=C(N=Nc2c(Br)cc([N+](=O)[O-])cc2C#N)C(=O)CC1(C)C` (centres unmarked) [compound of formula (8)], the Solubility entry in data set [1] is “B (Medium solubility (>= 10 and <= 20 g / L))”. Also, the “ε (at λ max)” value in data set [2] (Table A, azo ligands) was found to be 55 L/g/cm. The λ max in data set [2] turned out to be 396 nm. In addition, the DP in data set [3] amounted to 226 °C.
Consider `CCOC(=O)C1C(O)=C(N=Nc2ccc([N+](=O)[O-])cc2Br)C(=O)CC1(C)C` (centres unmarked) [compound of formula (9)], for which the Solubility result in data set [1] is “A (Good solubility (> 20 g / L))”. For the same compound, the “ε (at λ max)” value in data set [2] (Table A, azo ligands) stood at 72 L/g/cm. In data set [2], this compound gave a λ max of 400 nm. In data set [3], the DP was found to be 285 °C.
In the case of `CCOC(=O)C1C(O)=C(N=Nc2c(C)cc(C)cc2C)C(=O)CC1(C)C` (centres unmarked) [compound of formula (10)], the Solubility entry in data set [1] was “A (Good solubility (> 20 g / L))”. Also, the “ε (at λ max)” value in data set [2] (Table A, azo ligands) amounted to 55 L/g/cm. The same compound showed a λ max in data set [2] of 413 nm. Besides, the DP in data set [3] worked out at 248 °C.
The corresponding values for `CCOC(=O)C1C(O)=C(N=Nc2ccc([N+](=O)[O-])cc2OC)C(=O)CC1(C)C` (centres unmarked) [compound of formula (11)] are “A (Good solubility (> 20 g / L))”, 44 L/g/cm, 432 nm and 288 °C.
With `CCOC(=O)C1C(O)=C(N=Nc2cc(OC)c(S(N)(=O)=O)cc2OC)C(=O)CC1(C)C` (centres unmarked) [compound of formula (12)], the Solubility entry in data set [1] is “A (Good solubility (> 20 g / L))”. In addition, the “ε (at λ max)” value in data set [2] (Table A, azo ligands) turned out to be 25 L/g/cm. For the same compound, in data set [2], the λ max was determined as 438 nm. Further, the DP in data set [3] was 279 °C.
For `Cc1ccc(N=NC2=C(O)C(C#N)C(C)(C)CC2=O)c([N+](=O)[O-])c1` (centres unmarked) [compound of formula (13)], the Solubility entry in data set [1] is recorded as “C (Poor solubility (<10 g / L))”. In addition, the “ε (at λ max)” value in data set [2] (Table A, azo ligands) amounted to 52 L/g/cm. The compound further gave a λ max in data set [2] of 442 nm. Further, the DP in data set [3] was 270 °C.
As for `CC1(C)CC(=O)C(N=Nc2ccc(Cl)cc2[N+](=O)[O-])=C(O)C1C#N` (centres unmarked) [compound of formula (14)], the Solubility result in data set [1] is “A (Good solubility (> 20 g / L))”. Also, the “ε (at λ max)” value in data set [2] (Table A, azo ligands) worked out at 42 L/g/cm. Moreover, the λ max in data set [2] is recorded as 437 nm. The same compound returned a DP in data set [3] of 222 °C.
As to `COc1ccc(N=NC2=C(O)C(C#N)C(C)(C)CC2=O)c([N+](=O)[O-])c1` (centres unmarked) [compound of formula (15)], the Solubility entry in data set [1] is listed as “C (Poor solubility (<10 g / L))”. For the same compound, in data set [2] (Table A, azo ligands), the “ε (at λ max)” value is 50 L/g/cm. In addition, in data set [2], the λ max turned out to be 458 nm. In addition, the DP in data set [3] is 154 °C.
The corresponding values for `CC1(C)CC(=O)C(N=Nc2cc([N+](=O)[O-])ccc2O)=C(O)C1C#N` (centres unmarked) [compound of formula (16)] are “C (Poor solubility (<10 g / L))”, 17 L/g/cm, 423 nm and 249 °C.
`CCOC(=O)C1C(O)=C(N=Nc2c(F)c(F)c(F)c(F)c2F)C(=O)CC1(C)C` (centres unmarked) [compound of formula (17)]: the Solubility entry in data set [1] is recorded as “A (Good solubility (> 20 g / L))”. In addition, the “ε (at λ max)” value in data set [2] (Table A, azo ligands) was determined as 29 L/g/cm. Also, the λ max in data set [2] came to 326 nm. For the same compound, the DP in data set [3] was 157 °C.
For the compound `CCOC(=O)C1C([O][Cu][O]C2=C(N=Nc3ccc([N+](=O)[O-])cc3OC)C(=O)CC(C)(C)C2C(=O)OCC)=C(N=Nc2ccc([N+](=O)[O-])cc2OC)C(=O)CC1(C)C` (centres unmarked) [compound of formula (18)], the Solubility entry in data set [1] is “C (Poor solubility (<10 g / L))”. For the same compound, the “ε (at λ max)” value in data set [2] (Table B, metal complexes) was 50 L/g/cm. For the same compound, the λ max in data set [2] amounted to 431 nm. In addition, the DP in data set [3] came to 276 °C.
The corresponding values for `CCOC(=O)C1C([O][Ni][O]C2=C(N=Nc3ccc([N+](=O)[O-])cc3OC)C(=O)CC(C)(C)C2C(=O)OCC)=C(N=Nc2ccc([N+](=O)[O-])cc2OC)C(=O)CC1(C)C` (centres unmarked) [compound of formula (19)] are “A (Good solubility (> 20 g / L))”, 67 L/g/cm, 442 nm and 278 °C.
Regarding `CCOC(=O)C1C([O][Cu][O]C2=C(N=Nc3cc(OC)c(S(N)(=O)=O)cc3OC)C(=O)CC(C)(C)C2C(=O)OCC)=C(N=Nc2cc(OC)c(S(N)(=O)=O)cc2OC)C(=O)CC1(C)C` (centres unmarked) [compound of formula (20)], in data set [1], the Solubility entry is “B (Medium solubility (>= 10 and <= 20 g / L))”. Moreover, the “ε (at λ max)” value in data set [2] (Table B, metal complexes) worked out at 42 L/g/cm. This compound also had a λ max in data set [2] of 441 nm. In data set [3], this compound displayed a DP of 314 °C.
